In US5328902A, “7-(substituted)-9-[(substituted glycyl)amido]-6-demethyl-6-deoxytetracyclines” (American Cyanamid Co., priority 1992, dated 1994):

Legend:
Type in all cases: cell-based
[1] = test system: S. aureus IVES 2943; assay: MIC, agar dilution; conditions: S. aureus IVES 2943
[2] = test system: E. coli J3272 Tet D; assay: microbe, parasite or virus in culture; conditions: E. coli J3272 Tet D
[3] = test system: Enterococcus 12201; assay: MIC, agar dilution; conditions: Enterococcus 12201
[4] = test system: E. coli ATCC 25922; assay: MIC, agar dilution; conditions: E. coli ATCC 25922
[5] = test system: E. coli J2175; assay: MIC, agar dilution; conditions: E. coli J2175
[6] = test system: S. aureus NEMC 8769; assay: MIC, agar dilution; conditions: S. aureus NEMC 8769
[7] = test system: E. coli J3272 Tet C; assay: microbe, parasite or virus in culture; conditions: E. coli J3272 Tet C
[8] = test system: E. coli UBMS 90-5; assay: MIC, agar dilution
[9] = test system: E. coli #311 (MP); assay: MIC, agar dilution; conditions: E. coli #311 (MP)
[10] = test system: Ps. acruginosa ATCC 27853; assay: MIC, agar dilution; conditions: Ps. acruginosa ATCC 27853
[11] = test system: E. coli UBMS 88-1 Tet B; assay: microbe, parasite or virus in culture; conditions: E. coli UBMS 88-1 Tet B; 18 hours at 35° C.
[12] = test system: E. coli MC 4100 Tet sens.; assay: MIC, agar dilution
[13] = test system: S. aureus ATCC 29213; assay: MIC, agar dilution; conditions: S. aureus ATCC 29213
[14] = test system: S. aureus IVES 1 983; assay: MIC, agar dilution; conditions: S. aureus IVES 1 983
[15] = test system: S. mariescens FPOR 8733; assay: MIC, agar dilution
[16] = test system: E. coli UBMS 90-4 Tet M; assay: microbe, parasite or virus in culture; conditions: E. coli UBMS 90-4 Tet M
[17] = test system: E. coli PRP1 Tet A; assay: microbe, parasite or virus in culture; conditions: E. coli PRP1 Tet A
[18] = test system: E. coli UBMS 89-1 Tet M; assay: microbe, parasite or virus in culture; conditions: E. coli UBMS 89-1 Tet M
[19] = test system: S. aureus SMITH (MP); assay: MIC, agar dilution; conditions: S. aureus SMITH (MP)
[20] = test system: E. faecalis ATCC 29212; assay: MIC, agar dilution; conditions: E. faecalis ATCC 29212
[21] = test system: S. aureus UBMS 90-1 Tet M; assay: microbe, parasite or virus in culture; conditions: S. aureus UBMS 90-1 Tet M
[22] = test system: S. aureus UBMS 88-5 Tet M; assay: microbe, parasite or virus in culture; conditions: S. aureus UBMS 88-5 Tet M
[23] = test system: S. aureus UBMS 88-7 Tet K; assay: microbe, parasite or virus in culture; conditions: S. aureus UBMS 88-7 Tet K
[24] = test system: E. coli BAJ9003 IMP MUT; assay: microbe, parasite or virus in culture; conditions: E. coli BAJ9003 IMP MUT
[25] = test system: E. coli UBMS 89-2 Tet sens.; assay: MIC, agar dilution; conditions: E. coli UBMS 89-2 Tet sens.
[26] = test system: S. aureus UBMS 90-3; assay: MIC, agar dilution; conditions: S. aureus UBMS 90-3
[27] = test system: S. aureus UBMS 88-4; assay: MIC, agar dilution; conditions: S. aureus UBMS 88-4
[28] = test system: S. aureus UBMS 90-2 Tet M; assay: microbe, parasite or virus in culture; conditions: S. aureus UBMS 90-2 Tet M
[29] = test system: S. hemolyticus AVHAH 88-3; assay: MIC, agar dilution; conditions: S. hemolyticus AVHAH 88-3
[30] = test system: E. coli J3272 Tet sens.; assay: MIC, agar dilution
[31] = test system: E. coli MC 4100 TNIOC Tet B; assay: microbe, parasite or virus in culture; conditions: E. coli MC 4100 TNIOC Tet B
[32] = test system: S. aureus ROSE (MP); assay: MIC, agar dilution; conditions: S. aureus ROSE (MP)

Row | Substance | MIC [1] [µg/mL] | MIC [2] [µg/mL] | MIC [3] [µg/mL] | MIC [4] [µg/mL] | MIC [5] [µg/mL] | MIC [6] [µg/mL] | MIC [7] [µg/mL] | MIC [8] [µg/mL] | MIC [9] [µg/mL] | MIC [10] [µg/mL] | MIC [11] [µg/mL] | MIC [13] [µg/mL] | MIC [14] [µg/mL] | MIC [15] [µg/mL] | MIC [17] [µg/mL] | MIC [18] [µg/mL] | MIC [20] [µg/mL] | MIC [21] [µg/mL] | MIC [25] [µg/mL] | MIC [26] [µg/mL] | also measured
1 | [4S-(4alpha,12aalpha)]-4,7-bis(dimethylamino)-1,4,4a,5,5a,6,11,12a-octahydro-3,10, 12,12a-tetrahydroxy-1,11-dioxo-9-[[[(2pyridinylmethyl)amino]acetyl]amino-2-naphthacenecarboxamide dihydrochloride | > 32 | 8 | 4 | 8 | 16 | 8 | 16 | 16 | 8 | > 32 | 16 | 8 | > 32 | > 32 | 32 | 8 | 2 | 8 | 16 | 4 | MIC [12]: 2 µg/mL; MIC [16]: 8 µg/mL; MIC [19]: 4 µg/mL; MIC [22]: 8 µg/mL; MIC [23]: 32 µg/mL; MIC [24]: 1 µg/mL; MIC [27]: 8 µg/mL; MIC [28]: 8 µg/mL; MIC [29]: 16 µg/mL
2 | [4S-(4alpha,12aalpha)]-9-[(Bromoacetyl)amino]-4,7-bis(dimethylamino)-1,4,4a,5,5a,6, 11,12a-octahydro-3,10,12,12a-tetrahydroxy-1, 11-dioxo-2-naphthacenecarboxamide dihydrochloride | – | 32 | 1 | 16 | 32 | 0.12 | > 32 | 16 | 8 | > 32 | – | 0.5 | 4 | > 32 | > 32 | 4 | 0.5 | 1 | 32 | 0.5 | MIC [30]: 16 µg/mL; MIC [31]: > 32 µg/mL; MIC [22]: 1 µg/mL
3 | [7S-(7alpha,10aalpha)]-N-[9-(Aminocarbonyl)-4,7-bis(dimethylamino)-5,5a,6,6a,7,10,10a,12-octahydro-1,8,10a,11-tetrahydroxy-10,12-dioxo-2-naphthacenyl]-4-thiomorpholineacetamide dihydrochloride [F] | 4 | 16 | 1 | 32 | > 32 | – | > 32 | > 32 | > 32 | > 32 | > 32 | 1 | 4 | > 32 | > 32 | > 32 | 0.25 | 1 | > 32 | 1 | MIC [16]: > 32 µg/mL; MIC [30]: > 32 µg/mL; MIC [31]: > 32 µg/mL; MIC [32]: 8 µg/mL; MIC [23]: 4 µg/mL; MIC [27]: 1 µg/mL; MIC [28]: 1 µg/mL; MIC [29]: 4 µg/mL
